# Tested on: not given
# Test: not given
# Details: approximately 295 to 315 nm; cited from earlier work
row,Compound,absorption in the vitamin D producing range
1,4-Bis(polyethoxy)para-aminobenzoic acid polyethoxyethyl ester [PEG-25 PABA],minimal absorption
2,"O=C(c1ccc(O)cc1O)c1ccc(O)cc1O [2,2^1,4,4′-Tetrahydroxybenzophenone]",high percentage
3,"COc1ccc(C(=O)c2ccc(OC)cc2O)c(O)c1 [2,2′-Dihydroxy-4,4′-dimethoxybenzophenone]",high percentage
4,"O=C(c1ccccc1)c1ccc(O)cc1O [2,4-Dihydroxybenzophenone]",high percentage
5,CCCCCCCCOc1ccc(C(=O)c2ccccc2)c(O)c1 [2-Hydroxy-4-(Octyloxy)Benzophenone],high percentage
6,"Cc1ccc(C=C2C(=O)C3(C)CCC2C3(C)C)cc1 (centres unmarked) [4-Methylbenzylidene camphor, 3-(4-methylbenzyliden)camphor]",high percentage
7,"Nc1ccc(C(=O)O)cc1 [Aminobenzoic acid, 4-aminobenzoic acid]",high percentage
8,"COc1ccc(C(=O)CC(=O)c2ccc(C(C)(C)C)cc2)cc1 [Avobenzone, 4-tert-butyl-4′-methoxy-dibenzoylmethane]",relative lack of absorption
9,"CCCCC(CC)COc1ccc(-c2nc(-c3ccc(OC)cc3)nc(-c3ccc(OCC(CC)CCCC)cc3O)n2)c(O)c1 (centres unmarked) [Bemotrizinol, bis-ethylhexyloxyphenol methoxyphenyl triazine]",high percentage
10,"O=S(=O)([O-])c1cc(S(=O)(=O)O)cc2[nH]c(-c3ccc(-c4nc5c(S(=O)(=O)[O-])cc(S(=O)(=O)O)cc5[nH]4)cc3)nc12.[Na+].[Na+] [Bisdisulizole disodium, disodium phenyl dibenzimidazole tetrasulfonate]",relative lack of absorption
11,"CCOCCOC(=O)C=Cc1ccc(OC)cc1 [Cinoxate, 2-ethoxyethyl p-methoxycinnamate]",high percentage
12,"CC(=O)C=CC=C1C2CCC(C2)C1(C)C (centres unmarked) [Digalloyl trioleate, 5-(3,3-Dimethyl 2 norbornyliden)-3penten-2-one]",high percentage
13,CCCCC(CC)COC(=O)c1ccc(Nc2nc(Nc3ccc(C(=O)OCC(CC)CCCC)cc3)nc(Nc3ccc(C(=O)OCC(CC)CCCC)cc3)n2)cc1 (centres unmarked) [Ethylhexyl Triazone],high percentage
14,"Nc1ccc(C(=O)OCC(O)CO)cc1 (centres unmarked) [Glyceryl Aminobenzoate, glyceryl 1-(4-aminobenzoate)]",high percentage
15,"CC1CC(OC(=O)c2ccccc2O)CC(C)(C)C1 (centres unmarked) [Homosalate, 3,3,5-trimethylcyclohexyl salicylate]",minimal to moderate
16,"CCCCC(CC)COC(=O)c1ccc(Nc2nc(Nc3ccc(C(=O)NC(C)(C)C)cc3)nc(Nc3ccc(C(=O)OCC(CC)CCCC)cc3)n2)cc1 (centres unmarked) [Iscotrizinol, diethylhexyl butamido triazone]",high percentage
17,COc1ccc(C=CC(=O)OCCC(C)C)cc1 [Isoamyl p-methoxycinnamate],high percentage
18,"COc1ccc(C(=O)c2ccc(C)cc2)c(O)c1 [Mexenon, 2-hydroxy-4-methoxy-4′-methyl-benzophenone]",minimal to moderate
19,"CCCCC(CC)COC(=O)c1ccccc1O (centres unmarked) [Octisalate, 2-ethylhexyl salicylate]",minimal to moderate
20,"CCCCC(CC)COC(=O)C(C#N)=C(c1ccccc1)c1ccccc1 (stereo not drawn) [Octocrylene, 2-ethylhexyl alpha-cyano-beta-phenylcinnamate]",minimal to moderate
21,"COc1ccc(C(=O)c2ccccc2)c(O)c1 [Oxybenzone, 2-hydroxy-4-methoxybenzophenone]",minimal to moderate
22,"CCCCC(CC)COC(=O)c1ccc(N(C)C)cc1 (centres unmarked) [Padimate-0, 2-ethylhexyl 4-dimethylaminobenzoate]",high percentage
23,"CCCCCOC(=O)c1ccc(N(C)C)cc1 [Padimate-A, amyl p-dimethylaminobenzoate]",high percentage
24,"COc1cc(O)c(C(=O)c2ccccc2)cc1S(=O)(=O)O [Sulisobenzone, 2-hydroxy-4-methoxybenzophenone-5-sulfonic acid]",minimal to somewhat moderate
25,"CCCCCCOC(=O)c1ccccc1C(=O)c1ccc(N(CC)CC)cc1O [Uvinul A Plus, diethylamino hydroxybenzoyl hexyl benzoate]",relative lack of absorption

# Same assay, conditions: dissolved in alcohol; cited from earlier work
row,Compound,maximum absorbance [nm]
1,"Nc1ccc(C(=O)O)cc1 [Aminobenzoic acid, 4-aminobenzoic acid]",289

# Same assay, conditions: dissolved in water; cited from earlier work
row,Compound,maximum absorbance [nm]
1,"Nc1ccc(C(=O)O)cc1 [Aminobenzoic acid, 4-aminobenzoic acid]",278

# Tested on: not listed separately
# Test: UV absorption spectra (absorbance range, maxima, critical wavelength) of UV filters and other ingredients
# Type: physicochemical
# Details: over time under the sun
row,Compound,ability to absorb radiation in the 290 to 315 nm range over time
1,"COc1ccc(C(=O)CC(=O)c2ccc(C(C)(C)C)cc2)cc1 [Avobenzone, 4-tert-butyl-4′-methoxy-dibenzoylmethane]",increases over time

# Tested on: primary human keratinocytes
# Test: not given
# Details: De Haes et al. 2005; cited from earlier work
row,Compound,protection against UVB-induced DNA damage
1,"C=C1/C(=C\C=C2/CCC[C@]3(C)[C@@H]([C@H](C)CCCC(C)(C)O)CC[C@@H]23)C[C@@H](O)C[C@@H]1O [1,25(OH)2D3, 1,25-dihydroxyvitamin D3]",protects

# Reference: patent US9724544B2, “Vitamin D promoting sunscreen” (priority 2009, dated 2017)
